# Measurements from patent US7868135B2, “Compositions of lipopeptide antibiotic derivatives and methods of use thereof” (priority 2003, dated 2011).
# Experiments:
# Staphylococcus aureus = assay type: cell-based; details: for Post Antibiotic Effect (hours) 0.5 × MIC: exposure one hour at 0.5 × MIC, S. aureus log phase; for Post Antibiotic Effect (hours) 1 × MIC: exposure one hour at 1 × MIC; for Post Antibiotic Effect (hours) 2 × MIC: exposure one hour at 2 × MIC; for Post Antibiotic Effect (hours) 4 × MIC: exposure one hour at 4 × MIC
# Experimental: An exemplary pharmacokinetic parameter to aid in characterizing the properties of lipopeptide derivative compounds of the disclosure is post-antibiotic effect (PAE) of a lipopeptide derivative. For example, a bacterial culture with an initial count of 10^6 to 10^7 colony forming units per ml (CFU/ml) is treated with a certain concentration of lipopetide derivative for a certain time and a parallel (control) culture is left untreated. After treatment, the lipopetide derivative is removed from the culture (e.g., by dilution 1:1000 in fresh, lipopetide derivative-free medium), and the untreated culture is manipulated in the same way. Then the cultures are further incubated and monitored for bacterial growth over time. […] By way of background and not wishing to be bound by theory, a lipopeptide derivative having a measurable PAE activity will likely provide additional time for the host immune system to remove bacteria that might have survived antibiotic treatment and reproduced after the antibiotic is degraded, removed or filtered from the circulatory system. A longer PAE can influence the clinical outcome of antimicrobial therapy (i.e., a lower dose of a lipopetide derivative may be used to treat an infection or the frequency of a dosing regimen can be reduced).
# After removal of the lipopeptide compounds, bacterial titre was determined each hour to monitor bacterial re-growth. The PAE duration is defined as the difference in time required for antimicrobial exposed bacterial cells versus unexposed bacterial cells to achieve an increase of 1 log10 unit in CFU/mL.
# in vivo = details: male, Sprague Dawley, rat, plasma, iv, 10 mg/kg
# Experimental: Yet other exemplary in vivo models can be used to characterize the pharmacokinetics and pharmacodynamic parameters of antimicrobial compounds of this disclosure. Some parameters that can be measured include an in vivo half-life of a compound, elimination rate and clearance, volume of distribution, and bioavailability. For example, briefly, compounds can be administered as a single i.v. or oral (p.o.) dose in mice or rats. At various time points (ranging from 1 minute to 72 hours), blood from treated animals is collected and the concentration of lipopeptide derivative in the ex vivo plasma can be quantified by, for example, liquid chromatography with mass spectrometric detection (LC/MS). After quantification, pharmacokinetics parameters can be calculated using methods known in the art, such as a one compartment model with mono-exponential decay and linear regression analysis (see, e.g., Fantin et al., Antimicrob. Agents Chemotherap. 35: 1413. 1991).
# A pharmacokinetic parameter that can be measured, and which aids in determining efficacy, after a single i.v. administration of an antimicrobial lipopeptide derivative of the instant disclosure is the systemic half-life of the compound. Briefly, test compounds were dissolved in a 5% mannitol solution (pH was then adjusted) to a concentration of 1 mg/mL (w/v). A single intravenous injection in the lateral caudal vein of Swiss CD1 mice (5 to 6 weeks old, female) or Sprague Dawley rats (male) was used to administer the lipopeptide derivative at a final dose of 10 mg/kg. At various time points (ranging from about 4 minutes to about 24 hours for mice, and 48 or 72 hours for rats) mice were sacrificed and blood was harvested. The concentration of lipopeptide derivative in ex vivo plasma was quantified using liquid chromatography (LC) with mass spectrometric detection (MS).
# [1] = Acute toxicity, maximum tolerated dose (MTD); details: Swiss CD1, mouse, in vivo, iv
# Experimental: Another measure of toxicity is the maximum tolerated dose (MTD), which is determined as a dose level that is not accompanied by mortality or life-threatening toxicity. The dose ratio between toxic and therapeutic effect is the therapeutic index. […] The data obtained from these cell culture assays and animal studies can be used in formulating a dosage range that is not toxic for use in human subjects. […] The dosage may vary within this range depending upon the dosage form employed and the route of administration utilized. The exact formulation, route of administration and dosage can be chosen by the individual physician in view of the patient's condition or need thereof (see, e.g., Fingl et al., 1975, In: The Pharmacological Basis of Therapeutics, Chapter 1).
# For example, to examine acute toxicity, lipopeptide antibiotics of the invention can be tested in an animal model, such as Swiss CD1 mice, to determine the MTD. In certain embodiments, the animals used to test toxicity of a particular compound can be approximately 5-6 weeks old at the start of the experiment and weigh 22-26 g. The lipopeptides may be administered intravenously (i.v.) into, for example, the caudal tail vein at dose levels that range from about 50 to about 500 mg/kg, or from about 75 to about 250 mg/kg, or from about 100 to about 200 mg/kg, or at a dose range at or below 100 mg/kg. The animals are generally observed immediately after administration, 1-2 hours post administration, 5-8 hours post administration, and once daily thereafter. Observations include both the activity level of the mouse as well as any physical side effects from the administered dose. The animal weight is recorded on day 0 (immediately before dosing) and on day 7.
# [2] = test system: E. faecalis EFS0040 (clinical isolate); assay: Intraperitoneal murine model of protection against infection (ED50, Table 21); assay type: in vivo, Enterococcus faecalis; details: Swiss CD1 mice infected i.p., compound i.v.
SMILES,MIC used for the PAE experiment (Staphylococcus aureus) [µg/mL],Post Antibiotic Effect (hours) 0.5 × MIC (Staphylococcus aureus) [h],Post Antibiotic Effect (hours) 1 × MIC (Staphylococcus aureus) [h],Post Antibiotic Effect (hours) 2 × MIC (Staphylococcus aureus) [h],Post Antibiotic Effect (hours) 4 × MIC (Staphylococcus aureus) [h],half-life (in vivo) [h],MTD at 7 days [1] [mg/kg],"ED50 in Mice, E. faecalis (EFS0040) [2] [mg/kg]"
"CCCCCCCCCCCCCCC(=O)NC(CC(=O)O)C(=O)NC1C(=O)N2CCCCC2C(=O)NC(C(C)C(=O)O)C(=O)NC(CC(=O)O)C(=O)NCC(=O)NC(CC(=O)O)C(=O)NCC(=O)NC(C(C)NC(=O)CNC(=O)[C@@H](N)CCCCN)C(=O)NC(C(C)C)C(=O)N2CCCC2C(=O)NC1C (stereo partly shown) [Compound 4, C15-Amphomycin-9-Gly-Lys]",1,0.6,0.7,1.9,3.0,1.09,200 to 400,
"CCCCCCCCCCCCCCC(=O)NC(CC(=O)O)C(=O)NC1C(=O)N2CCCCC2C(=O)NC(C(C)C(=O)O)C(=O)NC(CC(=O)O)C(=O)NCC(=O)NC(CC(=O)O)C(=O)NCC(=O)NC(C(C)NC(=O)CCN)C(=O)NC(C(C)C)C(=O)N2CCCC2C(=O)NC1C (stereo not drawn) [Compound 147, C15-Amphomycin-9-(β-Ala)]",1,1.6,1.6,1.9,1.0,4.58,,0.8
"CCCCCCCCCCCCCCC(=O)NC(CC(=O)O)C(=O)NC1C(=O)N2CCCCC2C(=O)NC(C(C)C(=O)O)C(=O)NC(CC(=O)O)C(=O)NCC(=O)NC(CC(=O)O)C(=O)NCC(=O)NC(C(C)NC(=O)CN(C)C(=O)[C@@H](N)CCCCN)C(=O)NC(C(C)C)C(=O)N2CCCC2C(=O)NC1C (stereo partly shown) [Compound 199, C15-Amphomycin-9-Sar-Lys]",,,,,,,200 to 400,3
